Experimental data from ChEMBL document CHEMBL1128104, “A bis-[N-3-(1-hydroxy-1-methyl-ethyl)-benzyl)-cyclic urea as a HIV protease inhibitor” (Bioorg Med Chem Lett, 1995).

What was measured:
Lymphocytoid cell line [1] = experiment: Tested for cytotoxicity (concentration required to reduce 50% of the viable cell population) in presence of metabolizable tetrazolium dye in human lymphocytoid cell lines MT-2 or MT-4 using the RF strain of HIV-1; assay type: functional; details: read-out: TC50 (the source's name)
[2] = system: Human immunodeficiency virus; experiment: Ability to inhibit p24 mutant variant V82F/[…] was determined; assay type: functional; details: Human immunodeficiency virus 1
[3] = Cmax in plasma was determined upon peroral administration of 10.0 mg/Kg dose in dog; assay type: ADME, organism-based, Canis lupus familiaris; set-up: dose 10 mg/Kg, route oral; details: po
[4] = system: Human immunodeficiency virus 1; experiment: Tested for the ability to block cleavage of HIV-1 gag polyprotein using [35S]methionine-labeled ligand; assay type: functional, organism-based
Lymphocytoid cell line [5] = experiment: Tested for the ability to inhibit viral replication (HIV-1 RNA) in human lymphocytoid cell lines MT-2 or MT-4 using the RF strain of HIV-1; assay type: functional
[6] = Cmax in plasma was determined upon peroral administration of 10.0 mg/Kg dose in rat; assay type: ADME, organism-based; set-up: dose 10 mg/Kg, route oral; details: po
[7] = Tested for systemic clearance upon intravenous administration of 5.0 mg/Kg dose in dog; assay type: ADME, organism-based, Canis lupus familiaris; details: in vivo
[8] = Tested for systemic clearance upon intravenous administration of 5.0 mg/Kg dose in rat; assay type: ADME, organism-based; details: in vivo
[9] = Tested for t1/2 upon peroral administration of 10.0 mg/Kg dose in dog; assay type: ADME, organism-based, Canis lupus familiaris; details: in vivo, po
[10] = system: Human immunodeficiency virus; experiment: Ability to inhibit p24 mutant variant HxB2 wild type was determined; assay type: functional; details: Human immunodeficiency virus 1
[11] = system: Human immunodeficiency virus; experiment: Ability to inhibit p24 mutant variant V82F was determined; assay type: functional; details: Human immunodeficiency virus 1
[12] = Tested for volume of distribution at steady state upon intravenous administration of 5.0 mg/Kg dose in dog; assay type: ADME, organism-based, Canis lupus familiaris; details: in vivo, read-out: Vss
[13] = tmax upon peroral administration of 10.0 mg/Kg dose in dog; assay type: ADME, organism-based, Canis lupus familiaris; details: in vivo, po
[14] = Bioavailability in dog (dose 10.0 mg/kg p.o.); assay type: ADME, organism-based, Canis lupus familiaris; details: in vivo, po
[15] = Tested for t1/2 upon peroral administration of 10.0 mg/Kg dose in rat; assay type: ADME, organism-based; details: in vivo, po
[16] = system: Human immunodeficiency virus; experiment: Ability to inhibit p24 mutant variant […] was determined; assay type: functional; details: Human immunodeficiency virus 1
[17] = tmax upon peroral administration of 10.0 mg/Kg dose in rat; assay type: ADME, organism-based; details: in vivo, po
[18] = Bioavailability upon peroral administration of 10.0 mg/Kg dose in rat; assay type: ADME, organism-based; details: in vivo, po, read-out: Bioavailabiility
[19] = Tested for volume of distribution at steady state upon intravenous administration of 5.0 mg/Kg dose in rat; assay type: ADME, organism-based; details: in vivo, read-out: Vss
[20] = Tested for t1/2 upon intravenous administration of 5.0 mg/Kg dose in rat; assay type: ADME, organism-based; details: in vivo
[21] = Tested for t1/2 upon intravenous administration of 5.0 mg/Kg dose in dog; assay type: ADME, organism-based, Canis lupus familiaris; details: in vivo
[22] = biological target: Human immunodeficiency virus type 1 protease (Human immunodeficiency virus 1, UniProt Q72874); experiment: Tested for inhibitory activity against HIV protease

| SMILES | CC50 (Lymphocytoid cell line [1]) [nM] | IC90 [2] [nM] | Cmax [3] [µg/mL] | IC50 [4] [nM] | IC90 (Lymphocytoid cell line [5]) [nM] | Cmax [6] [µg/mL] | clearance [7] [L/h/kg] | clearance [8] [L/h/kg] | half-life [9] [h] | IC90 [10] [nM] | IC90 [11] [nM] | Vd [12] [L/kg] | Tmax [13] [h] | bioavailability [14] [%] | half-life [15] [h] | IC90 [16] [nM] | Vd [19] [L/kg] | half-life [20] [h] | half-life [21] [h] | Ki [22] [nM] | other results |
| --- | --- | --- | --- | --- | --- | --- | --- | --- | --- | --- | --- | --- | --- | --- | --- | --- | --- | --- | --- | --- | --- |
| O=C1N(Cc2ccc(CO)cc2)[C@H](Cc2ccccc2)[C@H](O)[C@@H](O)[C@@H](Cc2ccccc2)N1Cc1ccc(CO)cc1 [DMP-323] | 67500 | 22000 | 1.48 | 35.7 | 176 | 0.45 | 1.48 | 7.12 | 1.08 | 95.6 | 675 | 2.28 | 0.5 | 38.4 | 1.5 | 989 | 6.36 | 0.95 | 1.8 | 0.31 | Tmax [17]: 0.25 h; bioavailability [18]: 27.1% |
| O=C1N(Cc2cccc(CO)c2)[C@H](Cc2ccccc2)[C@H](O)[C@@H](O)[C@@H](Cc2ccccc2)N1Cc1cccc(CO)c1 | 54700 |  |  | 7.9 | 38.8 | 0.47 |  | 6.2 |  |  |  |  |  |  |  |  | 9.8 | 1.1 |  | 0.4 |  |
| CC(C)(O)c1cccc(CN2C(=O)N(Cc3cccc(C(C)(C)O)c3)[C@H](Cc3ccccc3)[C@H](O)[C@@H](O)[C@H]2Cc2ccccc2)c1 | 33400 | 5780 | 0.24 | 15 | 33.7 | 0.63 | 0.93 | 1.91 | 0.65 | 22.2 | 84.3 | 1.65 | 0.42 | < 4 | 1.5 | 72.2 | 3.04 | 1.03 | 1.2 | 0.067 |  |
| CC(C)(O)c1ccc(CN2C(=O)N(Cc3ccc(C(C)(C)O)cc3)[C@H](Cc3ccccc3)[C@H](O)[C@@H](O)[C@H]2Cc2ccccc2)cc1 | 39300 |  |  |  | 8040 |  |  |  |  |  |  |  |  |  |  |  |  |  |  | 2.2 |  |
